US11045745B2, “Reactive extraction of water” (University of Pittsburgh—Of the Commonwealth System of …, priority 2017, dated 2021)
Marks after values point to notes of the source that are not given here.

How the values were obtained:
Assay type in all cases: physicochemical
[1] = Ketone hydration to diol equilibrium constant by room temperature NMR (Technique 1); details: for KH,app at 20 ± ° C. (1H) / KH,app at 20 ± ° C. (19F): d6-DMSO/H2O (1/1, mol/mol); for KH,app at 20 ± ° C. (1H): 1H NMR; for KH,app at 20 ± ° C. (19F): 19F NMR
Experimental: (§1) Ketone hydration to diol equilibrium constants (KH) and thermodynamic parameters for Example compounds were measured by NMR by adapting techniques from the literature [Bushman et al., Berichte der Bunsengesellschaft für physikalische Chemie, 84: 41-44 (1980); Greenzaid et al., J. Amer. Chem. Soc. 89: 749-756 (1967); and R. Stewart and J. D. Van Dyke, Can. J. Chem. 50: 1992-1999 (1972)] using either Technique 1 (IIa) or Technique 2 (IIb), further deviations to the general methods are noted with those Examples. D2O concentration was minimized to reduce the isotope effect (˜20% according to Bushman 1980).
(§2) The conversion from ketone to diol results in an upfield change in nuclear chemical shift. This change in nuclear resonance frequency can then be used to distinguish between ketone and diol peaks in the NMR spectrum. Since area integration of NMR peaks is directly related to the number of atoms resonating at that frequency, the area ratio between diol and ketone peaks can be used to calculate equilibrium constants. Assuming water is in high excess relative to the ketone its activity can be treated as unity resulting in the KH being only dependent on the relative peak integration ratio of diol/ketone:
In many Examples, only a single resonance for each species was available for to determine the diol/ketone ratio. Where available equilibrium constants were calculated by averaging multiple resonance together normalized by number of hydrogens associated with each of them.
Due to the insolubility of some ketones in water, DMSO was used as a co-solvent at 50% by mole. Equilibrium constants obtained with DMSO as a co-solvent are only apparent constants (KH,app) since this alters the activities of the compounds relative to a pure water solvent. […] J. Chem. 50: 1992-1999 (1972)].
In a volumetric flask, ketones were dissolved to a concentration of approximately 0.5 M in 50 mol % d^6-DMSO/H2O. Solutions were left to equilibrate overnight then transferred to an NMR tube for analysis. Solutions were measured by ^1H NMR at (400 MHz) or ^19F NMR (376 MHz) at ambient temperature (20±1° C.).
(§3) This should not affect the measured hydration equilibrium greatly though since water is in such high excess. From Examples 2-2 to 2-5, the tunability of the hydration constant by altering the substituent on the benzyl ring is readily apparent.

[2] = Solubility in water (remark on sample preparation)
From the text: as §3

[3] = Ketone hydration equilibrium and thermodynamic parameters by variable temperature NMR (Technique 2), van't Hoff fit; details: for ΔG ° / ΔH ° / −TΔS °: van't Hoff fit; for KH at 25° C. (KH,app): apparent constant
Experimental: as §1, §2
For a select set of compounds a series of variable temperature NMR measurements (IIB: Technique 2) were made to extract reaction standard enthalpy)(ΔH°) and entropy(ΔS°) contributions to free energy of hydration)(ΔG°). Equilibrium constants versus temperature data were fit to the van't Hoff equation to determine ΔH°, ΔS°, and ΔG°; changes in heat capacity were assumed to be negligible:
In a volumetric flask (1.00, 2.00, or 10.00 mL) ketones were dissolved to a concentration of approximately 0.5 M in solvents composed of either D2O/H2O (5/95, v/v; method 2a) or d^6-DMSO/DMSO/H2O (10/40/50 by moles; method 2b). The solution was left to equilibrate at room temperature overnight then transferred to a standard NMR tube.
A series of 1H NMR (400 MHz)measurements were made with variable temperature control (0.1° C. precision) ranging from 25-65° C., typically in 10° C. increments. At each increment once the temperature had stabilized to within ±0.2° C. of the goal, samples were equilibrated for 5 minutes prior to the measurement.
The van't Hoff equation was then fit to a plot of KH vs. temperature; energy standard deviation were calculated from the fit of the equation to the raw data.
Examples 2-6 and 2-11 were prepared using variations to the standard procedure. Example 2-6 was prepared with a concentration of 50 mM, so that it was soluble in water. For Example 2-11, a small amount of enol was also observed (about 0.08 relative to ketone). To account for this, we calculated KH for Example 2-11 as diol/(ketone+enol), assuming enol formation from the ketone is reversible.

SMILES	KH,app at 20 ± ° C. (19F) [1]	KH at 25° C. ([3]; D2O/H2O (5/95, v/v))	ΔG ° ([3]; D2O/H2O (5/95, v/v))	ΔH ° ([3]; D2O/H2O (5/95, v/v))	−TΔS ° ([3]; D2O/H2O (5/95, v/v))	other results
CC(=O)C(C)(C)[N+](=O)[O-] [Example 2-1, 3-methyl-3-nitrobutan-2-one]						KH,app at 20 ± ° C. ([1]; D2O/H2O (5/95, v/v), 23 mM): 0.22; solubility in water [2]: low solubility in water
O=C(c1ccccc1)C(F)(F)F [Example 2-5]	370 (^19F)					
O=C1CCCCC1F (stereo not drawn) [Example 2-8]						KH at 25° C. (KH,app) ([3]; DMSO/H2O (1/1, mol/mol)): 0.52^a; ΔG ° ([3]; DMSO/H2O (1/1, mol/mol)): 0.96 ± 0.17 kcal/mol; ΔH ° ([3]; DMSO/H2O (1/1, mol/mol)): -5.35 ± 0.096 kcal/mol; −TΔS ° ([3]; DMSO/H2O (1/1, mol/mol)): 6.31 ± 0.14 kcal/mol
O=C(CF)CF [Example 2-9]		27	-1.94 ± 0.24 kcal/mol	-7.5 ± 0.17 kcal/mol	5.57 ± 0.17 kcal/mol	
CC(=O)C(C)=O [Example 2-10]		2.5	-0.526 ± 0.359 kcal/mol	-5.98 ± 0.359 kcal/mol	5.45 ± 0.359 kcal/mol	
CCC(=O)C(C)=O [Example 2-11]		1.5	-0.263 ± 0.12 kcal/mol	-5.47 ± 0.12 kcal/mol	5.21 ± 0.12 kcal/mol	KH at 25° C. (KH,app) ([3]; DMSO/H2O (1/1, mol/mol)): 0.45^a; ΔG ° ([3]; DMSO/H2O (1/1, mol/mol)): 0.48 kcal/mol; ΔH ° ([3]; DMSO/H2O (1/1, mol/mol)): -5.74 kcal/mol; −TΔS ° ([3]; DMSO/H2O (1/1, mol/mol)): 6.21 kcal/mol; enol observed relative to ketone ([3]; NMR): about 0.08

More lines, main results first:

KH,app at 20 ± ° C. (19F) [1]	KH at 25° C. ([3]; D2O/H2O (5/95, v/v))	ΔG ° ([3]; D2O/H2O (5/95, v/v))	ΔH ° ([3]; D2O/H2O (5/95, v/v))	−TΔS ° ([3]; D2O/H2O (5/95, v/v))	SMILES	other results
3.3					CC(F)(F)C(=O)c1ccccc1 [Example 2-2, 2,2-difluoro-1-phenyl-1-propanone]	KH,app at 20 ± ° C. (1H) [1]: 2.8
23					COc1ccc(C(=O)C(F)(F)F)cc1 [Example 2-3]	KH,app at 20 ± ° C. (1H) [1]: 21
500 (^19F)					O=C(c1ccc(F)cc1)C(F)(F)F [Example 2-4]	
	0.063	1.63 ± 0.48 kcal/mol	-5.86 ± 0.359 kcal/mol	7.48 ± 0.335 kcal/mol	CC(=O)C(C)(C)C#N [Example 2-6]	
